Laboratory results: patent US20150183737A1, “COMPOSITIONS AND METHODS FOR SUBSTRATE-SELECTIVE INHIBITION OF ENDOCANNABINOID OXYGENATION” (Vanderbilt University, priority 2012, published 2015)

Target: T1, humanized rat FAAH (Rattus norvegicus, UniProt P97612, A377T/F194Y/I491V/L192F/S435N/V495M)
T1 sequence (P97612 30-579 L192F/F194Y/A377T/S435N/I491V/V495M limits assumed): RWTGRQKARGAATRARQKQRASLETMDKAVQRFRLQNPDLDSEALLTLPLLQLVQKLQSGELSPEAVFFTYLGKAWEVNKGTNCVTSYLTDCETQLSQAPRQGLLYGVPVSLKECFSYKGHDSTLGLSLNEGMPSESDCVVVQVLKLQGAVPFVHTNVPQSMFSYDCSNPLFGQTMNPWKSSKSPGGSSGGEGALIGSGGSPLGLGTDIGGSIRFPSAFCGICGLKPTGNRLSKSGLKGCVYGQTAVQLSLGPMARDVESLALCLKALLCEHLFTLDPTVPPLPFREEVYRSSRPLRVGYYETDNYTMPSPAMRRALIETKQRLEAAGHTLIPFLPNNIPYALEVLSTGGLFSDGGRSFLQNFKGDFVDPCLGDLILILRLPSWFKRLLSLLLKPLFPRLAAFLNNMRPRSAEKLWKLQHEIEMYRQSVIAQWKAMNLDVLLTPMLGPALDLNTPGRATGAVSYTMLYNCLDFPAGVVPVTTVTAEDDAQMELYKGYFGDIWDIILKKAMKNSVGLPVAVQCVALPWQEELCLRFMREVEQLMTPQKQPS
Test: FAAH activity (Compound A)
Type: biochemical
Settings: in vitro

COc1ccc2c(c1)c(CC(=O)N1CCOCC1)c(C)n2C(=O)c1ccc(Cl)cc1 [Compound A, 2-[1-(4-Chloro-benzoyl)-5-methoxy-2-methyl-1H-indol-3-yl]-1-morpholin-4-yl-ethanone]
Inhibition of FAAH: did not inhibit
